Paper PMC11239830, “Synthetic macrolides overcoming MLSBK-resistant pathogens” (Cell Discovery, 2024)
Converted amounts (≈) assume the structure as drawn. Where two headings read alike, the source gives them in different places.

What was measured:
Assay in all cases: MIC, broth microdilution
[1] = tested on: S. pneumoniae; type: cell-based, Streptococcus pneumoniae
Protocol: (§1) MICs were determined by the microdilution method according to the Clinical and Laboratory Standards Institute guidelines. […] Finally, the 96-well plates were incubated at 37 °C for 16–20 h to observe and record the results. […] The assay for MICs was replicated at least three times.

[2] = tested on: S. pyogenes; type: cell-based, Streptococcus pyogenes; conditions: S. pyogenes 12-206, c-ermTR
Protocol: as §1

[3] = tested on: S. aureus; type: cell-based, Staphylococcus aureus
Protocol: as §1

[4] = tested on: H. influenzae; type: cell-based, Haemophilus influenzae
Protocol: as §1

[5] = Streptococcus pneumoniae, ATCC49619, S. pneumoniae ATCC49619, Ery-S, read-out: MIC
[6] = Streptococcus pneumoniae, S. pneumoniae 07P390, c-ermB, read-out: MIC
[7] = Streptococcus pneumoniae, S. pneumoniae PU09, mef, read-out: MIC
[8] = Streptococcus pyogenes, read-out: MIC
[9] = Staphylococcus aureus, S. aureus 15B196, c-ermB, read-out: MIC
[10] = Staphylococcus aureus, S. aureus PU32, i-ermA, read-out: MIC
[11] = Haemophilus influenzae, ATCC49247, H. influenzae ATCC49247, Azi-S, read-out: MIC

Row | Compound | MIC ([1]; S. pneumoniae 07P390, c-ermB) [µg/mL] | MIC ([1]; S. pneumoniae ATCC49619, Ery-S) [µg/mL] | MIC ([1]; S. pneumoniae PU09, mef) [µg/mL] | MIC [2] [µg/mL] | MIC ([3]; S. aureus 15B196, c-ermB) [µg/mL] | MIC ([3]; S. aureus PU32, i-ermA) [µg/mL] | MIC ([4]; H. influenzae ATCC49247, Azi-S) [µg/mL] | MIC [1, 5] [µg/mL] | MIC [1, 6] [µg/mL] | MIC [1, 7] [µg/mL] | MIC [2, 8] [µg/mL] | MIC [3, 9] [µg/mL] | MIC [3, 10] [µg/mL] | MIC [4, 11] [µg/mL]
1 | CC[C@H]1OC(=O)[C@H](C)[C@@H](OC(=O)NCCOCCC#Cc2ccc3c(=O)c(C(=O)O)cn(C4CC4)c3c2)[C@H](C)[C@@H](O[C@@H]2O[C@H](C)C[C@H](N(C)C)[C@H]2O)[C@](C)(O)C[C@@H](C)CN(C)[C@H](C)[C@H]2OC(=O)O[C@@]21C [116c] | 4 (≈ 4.07 µM) | 0.12 (≈ 0.122 µM) | 1 (≈ 1.02 µM) | 8 (≈ 8.14 µM) | 512 (≈ 521 µM) | 32 (≈ 32.5 µM) | 8 (≈ 8.14 µM) | – | – | – | – | – | – | –
2 | CCC1OC(=O)C(C)C(OC(=O)NCCOCCCC#Cc2ccc3c(=O)c(C(=O)O)cn(C4CC4)c3c2)C(C)C(OC2OC(C)CC(N(C)C)C2O)C(C)(OC)CC(C)C(=NOC)C(C)C2OC(=O)OC12C (centres unmarked) [71c] | – | – | – | – | – | – | – | ≤ 0.008 | 0.12 (≈ 0.117 µM) | ≤ 0.008 | 2 (≈ 1.95 µM) | 256 (≈ 250 µM) | 4 (≈ 3.9 µM) | 32 (≈ 31.2 µM)
3 | CC[C@H]1OC(=O)[C@H](C)[C@@H](OC(=O)NCCCCCC#Cc2ccc3c(=O)c(C(=O)O)cn(C4CC4)c3c2)[C@H](C)[C@@H](O[C@@H]2O[C@H](C)C[C@H](N(C)C)[C@H]2O)[C@](C)(OC)C[C@@H](C)C(=O)[C@H](C)[C@H]2NC(=O)O[C@@]21C [87c] | – | – | – | – | – | – | – | ≤ 0.008 | 0.06 (≈ 0.0613 µM) | 0.03 (≈ 0.0306 µM) | 1 (≈ 1.02 µM) | 64 (≈ 65.4 µM) | 1 (≈ 1.02 µM) | 8 (≈ 8.17 µM)
4 | CC[C@H]1OC(=O)[C@H](C)[C@@H](OC(=O)NCCCCCCc2ccc3c(c2)c(=O)c(C(N)=O)cn3C2CC2)[C@H](C)[C@@H](O[C@@H]2O[C@H](C)C[C@H](N(C)C)[C@H]2O)[C@](C)(OC)C[C@@H](C)C(=NOC)[C@H](C)[C@H]2OC(=O)O[C@@]21C [60b] | 32 (≈ 32.1 µM) | 0.25 (≈ 0.25 µM) | 1 (≈ 1 µM) | 32 (≈ 32.1 µM) | > 256 | 128 (≈ 128 µM) | > 256 | – | – | – | – | – | – | –
5 | CC[C@H]1OC(=O)[C@H](C)[C@@H](OC(=O)NCCCC#Cc2ccc3c(=O)c(C(=O)O)cn(C4CC4)c3c2)[C@H](C)[C@@H](O[C@@H]2O[C@H](C)C[C@H](N(C)C)[C@H]2O)[C@](C)(O)C[C@@H](C)CN(C)[C@H](C)[C@H]2OC(=O)O[C@@]21C [108c] | 128 (≈ 134 µM) | 0.25 (≈ 0.262 µM) | 1 (≈ 1.05 µM) | 64 (≈ 67.1 µM) | 512 (≈ 537 µM) | 64 (≈ 67.1 µM) | 8 (≈ 8.39 µM) | – | – | – | – | – | – | –
6 | CC[C@H]1OC(=O)[C@H](C)[C@@H](OC(=O)NCCCOCCC#Cc2ccc3c(=O)c(C(=O)O)c[nH]c3c2)[C@H](C)[C@@H](O[C@@H]2O[C@H](C)C[C@H](N(C)C)[C@H]2O)[C@](C)(OC)C[C@@H](C)C(=O)[C@H](C)[C@H]2NC(=O)O[C@@]21C [95i] | – | – | – | – | – | – | – | 0.12 (≈ 0.126 µM) | 1 (≈ 1.05 µM) | 0.5 (≈ 0.523 µM) | 1 (≈ 1.05 µM) | 128 (≈ 134 µM) | 8 (≈ 8.38 µM) | 16 (≈ 16.8 µM)
7 | CC[C@H]1OC(=O)[C@H](C)[C@@H](OC(=O)NCCCCCc2ccc3c(c2)c(=O)c(C(N)=O)cn3C2CC2)[C@H](C)[C@@H](O[C@@H]2O[C@H](C)C[C@H](N(C)C)[C@H]2O)[C@](C)(OC)C[C@@H](C)C(=NOC)[C@H](C)[C@H]2OC(=O)O[C@@]21C [59b] | 64 (≈ 65 µM) | 0.25 (≈ 0.254 µM) | 1 (≈ 1.02 µM) | 64 (≈ 65 µM) | > 256 | 128 (≈ 130 µM) | > 256 | – | – | – | – | – | – | –
8 | CC[C@H]1OC(=O)[C@H](C)[C@@H](OC(=O)NCCCCCC#Cc2ccc3c(=O)c(C(=O)NO)cn(C4CC4)c3c2)[C@H](C)[C@@H](O[C@@H]2O[C@H](C)C[C@H](N(C)C)[C@H]2O)[C@](C)(OC)C[C@@H](C)C(=NOC)[C@H](C)[C@H]2OC(=O)O[C@@]21C [57e] | 2 (≈ 1.95 µM) | 0.016 (≈ 0.0156 µM) | 0.5 (≈ 0.488 µM) | 128 (≈ 125 µM) | 128 (≈ 125 µM) | 16 (≈ 15.6 µM) | 32 (≈ 31.2 µM) | – | – | – | – | – | – | –
9 | CCC1OC(=O)C(C)C(OC(=O)NCCCCCC#Cc2ccc3c(c2)c(=O)c(C(=O)O)cn3C2CC2)C(C)C(OC2OC(C)CC(N(C)C)C2O)C(C)(OC)CC(C)C(=NOC)C(C)C2OC(=O)OC12C (centres unmarked) [57a] | – | – | – | – | – | – | – | 0.25 (≈ 0.248 µM) | 64 (≈ 63.4 µM) | 1 (≈ 0.991 µM) | 32 (≈ 31.7 µM) | 128 (≈ 127 µM) | 16 (≈ 15.9 µM) | > 256
10 | CC[C@H]1OC(=O)[C@H](C)[C@@H](OC(=O)NCCCCC#Cc2ccc3c(c2)c(=O)c(C(=O)O)cn3C2CC2)[C@H](C)[C@@H](O[C@@H]2O[C@H](C)C[C@H](N(C)C)[C@H]2O)[C@](C)(O)C[C@@H](C)CN(C)[C@H](C)[C@H]2OC(=O)O[C@@]21C [109a] | 256 (≈ 265 µM) | 1 (≈ 1.03 µM) | 2 (≈ 2.07 µM) | 128 (≈ 132 µM) | 256 (≈ 265 µM) | 32 (≈ 33.1 µM) | 32 (≈ 33.1 µM) | – | – | – | – | – | – | –
11 | CC[C@H]1OC(=O)[C@H](C)[C@@H](OC(=O)NCCOCCC#Cc2ccc3c(=O)c(C(=O)O)cn(C4CC4)c3c2)[C@H](C)[C@@H](O[C@@H]2O[C@H](C)C[C@H](N(C)C)[C@H]2O)[C@](C)(OC)C[C@@H](C)C(=NOC)[C@H](C)[C@H]2OC(=O)O[C@@]21C [70c] | 0.25 (≈ 0.247 µM) | ≤ 0.008 | 0.06 (≈ 0.0593 µM) | 2 (≈ 1.98 µM) | 128 (≈ 127 µM) | 4 (≈ 3.96 µM) | 32 (≈ 31.6 µM) | – | – | – | – | – | – | –
12 | CC[C@H]1OC(=O)[C@H](C)[C@@H](OC(=O)NCCCCCC#Cc2ccc3c(=O)c(C(=O)O)cn(C4CC4)c3c2)[C@H](C)[C@@H](O[C@@H]2O[C@H](C)C[C@H](N(C)C)[C@H]2O)[C@](C)(OC)C[C@@H](C)C(=O)[C@H](C)[C@H]2OC(=O)O[C@@]21C [79c] | – | – | – | – | – | – | – | 0.016 (≈ 0.0163 µM) | 0.12 (≈ 0.122 µM) | 0.06 (≈ 0.0612 µM) | 2 (≈ 2.04 µM) | 64 (≈ 65.3 µM) | 4 (≈ 4.08 µM) | 16 (≈ 16.3 µM)
13 | CCC1OC(=O)C(C)C(OC(=O)NCCCOCCC#Cc2ccc3c(=O)c(C(=O)O)cn(C4CC4)c3c2)C(C)C(OC2OC(C)CC(N(C)C)C2O)C(C)(OC)CC(C)C(=NOC)C(C)C2OC(=O)OC12C (centres unmarked) [72c] | – | – | – | – | – | – | – | ≤ 0.008 | 0.12 (≈ 0.117 µM) | ≤ 0.008 | 1 (≈ 0.975 µM) | 32 (≈ 31.2 µM) | 2 (≈ 1.95 µM) | 16 (≈ 15.6 µM)
14 | CCC1OC(=O)C(C)C(OC(=O)NCCCCCCCc2ccc3c(=O)c(C(N)=O)cn(C4CC4)c3c2)C(C)C(OC2OC(C)CC(N(C)C)C2O)C(C)(OC)CC(C)C(=NOC)C(C)C2OC(=O)OC12C (centres unmarked) [61d] | – | – | – | – | – | – | – | 0.12 (≈ 0.119 µM) | 16 (≈ 15.8 µM) | 1 (≈ 0.988 µM) | 16 (≈ 15.8 µM) | > 256 | 64 (≈ 63.2 µM) | > 256
